Literature values, collected in patent US20090023700A1, “NEUROPROTECTIVE TREATMENTS” (University of Louisville Research Foundation, priority 2007, published 2009).

Tested on: AP1
Conditions: macrophages; cited from earlier work

O=C(O)c1ccccn1.OO.OO.[K+].[K+].[O]=[V] [bpV(pic), potassium bisperoxo(pyridine-2-carboxylato)oxovanadate(V)]
AP1 activation: does not
